Measured values from ChEMBL document CHEMBL5727000, “Carboxamide or sulfonamide substituted thiazoles and related derivatives as modulators for the orphan nuclear receptor ROR[γ]” (2019).

What was measured:
[1] = (§1) RORgamma Gal4 Reporter Gene Assay (REN): Cells were incubated for additional 16 h before renilla (REN) luciferase activities were measured sequentially in the same cell extract using a Dual-Light-Luciferase-Assay system (Dyer et al., Anal. Biochem. 2000, 282:158). All experiments were done at least in triplicates.
[2] = as §1, with “(FF):” for “(REN):”, “firefly (FF)” for “renilla (REN)”

Question: For `CC(C)(C)NS(=O)(=O)c1ccc(-c2sc(C(=O)NC3CCC3)[n+]([O-])c2CC2CCCCC2)c2ccccc12`, which IC50 [1] is on record?
Answer: 31.6 nM

Question: What about the IC50 [2] of the same compound?
Answer: 31.6 nM

Question: Which IC50 [1] does the source give for `CC(C)(O)CNC(=O)c1nc(CC2CCCCC2)c(-c2ccc(S(=O)(=O)NC(C)(C)C)c(Cl)c2Cl)o1` here?
Answer: 31.6 nM

Question: And the IC50 [2]?
Answer: 39.8 nM

Question: For `CC(C)(C)c1cc(-c2sc(C(=O)NC3CC(OC=O)C3)nc2CC2CCCCC2)nc(C(C)(C)C)n1` (stereo unspecified), which IC50 [1] is on record?
Answer: 126 nM

Question: And the IC50 [2]?
Answer: 126 nM

Question: Which results are given for `CC(C)(C)NS(=O)(=O)c1ccc(-c2oc(C(=O)NC3CCS(=O)(=O)CC3)nc2CC2CCCCC2)c(Cl)c1Cl`?
Answer: IC50 [1]: 6.31 nM; IC50 [2]: 3.98 nM

Question: Which IC50 [1] does the source give for `CC(C)(C)NS(=O)(=O)c1ccc(-c2sc(C(=O)NC3CCC3)nc2CC2CCCCC2)c(OC(F)(F)F)c1` here?
Answer: 6.31 nM

Question: What about the IC50 [2] of the same compound?
Answer: 10 nM

Question: For `CC(C)(O)CNC(=O)c1nc(CC2CCC2)c(-c2ccc(S(=O)(=O)NC(C)(C)C)c(Cl)c2OC(F)F)s1`, which IC50 [1] is on record?
Answer: 39.8 nM

Question: And the IC50 [2]?
Answer: 31.6 nM

Question: With `CC(C)(C)NS(=O)(=O)c1ccc(-c2sc(C(=O)NC3CCC3)nc2CC2CCCCC2)c(OC(F)F)c1Cl` as the compound, how does the IC50 [1] read?
Answer: 5.01 nM

Question: What about the IC50 [2] of the same compound?
Answer: 10 nM

Question: Which IC50 [1] does the source give for `CC(C)(C)NS(=O)(=O)c1cnc(-c2sc(C(=O)N[C@H]3C[C@H](C(=O)O)C3)nc2CC2CCCCC2)nc1C(C)(C)C` here?
Answer: 398 nM

Question: And the IC50 [2]?
Answer: 200 nM

Question: With `C[C@H](NC(=O)c1cc(-c2sc(C(=O)NCC(C)(C)c3noc(=O)[nH]3)nc2CC2CCCCC2)cc(C2(C)CC2)c1)C(F)(F)F` as the compound, how does the IC50 [1] read?
Answer: 5.01 nM

Question: And the IC50 [2]?
Answer: 5.01 nM

Question: With `CC(C)(C)c1cc(-c2sc(C(=O)NC3CC(OC=O)C3)nc2CC2CCCCC2)nc(C2(C)CC2)n1` (stereo unspecified) as the compound, how does the IC50 [1] read?
Answer: 200 nM

Question: And the IC50 [2]?
Answer: 158 nM

Question: For `CC(=O)NS(=O)(=O)c1nc(-c2cc(C(C)(C)C)cc(C(C)(C)C)c2)c(CC2CCCCC2)s1`, which IC50 [1] is on record?
Answer: < 20000 nM

Question: And the IC50 [2]?
Answer: < 20000 nM

Question: Which results are given for `CC(C)(O)CNC(=O)c1nc(CC2CCCCC2)c(-c2ccc(S(N)(=O)=O)c(Cl)c2Cl)s1`?
Answer: IC50 [1]: < 20000 nM; IC50 [2]: < 20000 nM

Question: Which results are given for `CCOC(=O)c1nc(Cc2ccccc2)c(-c2ccc(S(=O)(=O)NC(C)(C)C)c3ccccc23)s1`?
Answer: IC50 [1]: 10 nM; IC50 [2]: 12.6 nM

Question: With `CC(C)(C)NS(=O)(=O)c1ccc(-c2oc(C(=O)N3CC4(CCS(=O)(=O)CC4)C3)nc2CC2CCCCC2)c2ccccc12` as the compound, how does the IC50 [2] read?
Answer: 1260 nM

Question: What does the source list for `CC(C)(C)NS(=O)(=O)c1ccc(-c2sc(C(=O)NC3CCOCC3)nc2CC2CCCCC2)cc1C(C)(C)C`?
Answer: IC50 [1]: 12.6 nM; IC50 [2]: 15.8 nM

Question: With `O=CO[C@H]1C[C@H](NC(=O)c2nc(CC3CCCCC3)c(-c3ccc(OCC(F)(F)F)c4ccccc34)s2)C1` as the compound, how does the IC50 [1] read?
Answer: 631 nM

Question: What about the IC50 [2] of the same compound?
Answer: 316 nM

Question: Which IC50 [1] does the source give for `C[C@H](NS(=O)(=O)c1ccc(-c2sc(C(=O)N3CC4(C3)CS(=O)(=O)C4)nc2CC2CC2)c2ccccc12)C(F)(F)F` here?
Answer: 6.31 nM

Question: And the IC50 [2]?
Answer: 6.31 nM

Question: For `COc1ccc(-c2sc(C(=O)N[C@H]3C[C@H](OC=O)C3)nc2CC2CCCCC2)c2ccccc12`, which IC50 [1] is on record?
Answer: 251 nM

Question: And the IC50 [2]?
Answer: 251 nM

Question: Which IC50 [1] does the source give for `CC(C)(C)NS(=O)(=O)c1ccc(-c2sc(C(=O)NC3CCOCC3)nc2CC2CCCCC2)cc1C(F)(F)F` here?
Answer: 5.01 nM

Question: What about the IC50 [2] of the same compound?
Answer: 10 nM

Question: Which IC50 [1] does the source give for `CC(C)(O)CNC(=O)c1nc(C(=O)C2CCC(C)(C)CC2)c(-c2ccc(S(=O)(=O)NC(C)(C)C)c3ccccc23)s1` here?
Answer: 31.6 nM

Question: What about the IC50 [2] of the same compound?
Answer: 25.1 nM

Question: Which IC50 [1] does the source give for `CC(C)(CNC(=O)c1nc(CC2CCCCC2)c(-c2cc(C(C)(C)C)cc(C3(C)CC3)c2)o1)C(=O)O` here?
Answer: 251 nM

Question: Which IC50 [1] does the source give for `O=C(NC1CCS(=O)(=O)CC1)c1nc(CC2CCCCC2)c(-c2ccc(C3(O)CCC3)c3ccccc23)s1` here?
Answer: 631 nM

Question: And the IC50 [2]?
Answer: 501 nM

Question: For `CC(C)(C)NS(=O)(=O)c1ccc(-c2sc(S(N)(=O)=O)nc2CC2CCCCC2)cc1C(C)(C)C`, which IC50 [1] is on record?
Answer: 251 nM

Question: For `CC(C)(C)NS(=O)(=O)c1ccc(-c2sc(C(=O)N[C@H]3C[C@H](C(=O)O)C3)nc2Cc2ccccc2)c2ccccc12`, which IC50 [2] is on record?
Answer: 26.5 nM

Question: Which IC50 [1] does the source give for `O=CO[C@H]1C[C@H](NC(=O)c2nc(CC3CCCCC3)c(-c3ccc(OC(F)(F)F)c4ccccc34)s2)C1` here?
Answer: 126 nM

Question: And the IC50 [2]?
Answer: 126 nM

Question: With `CC(C)(C)NS(=O)(=O)c1ccc(-c2sc(C(=O)NC3CS(=O)(=O)C3)nc2CC2CCCCC2)cc1C(C)(C)O` as the compound, how does the IC50 [1] read?
Answer: 12.6 nM

Question: Which IC50 [1] does the source give for `C[C@H](NS(=O)(=O)c1ccc(-c2sc(C(=O)NCC(C)(C)O)nc2CC2CCC2)c(Cl)c1)C(F)(F)F` here?
Answer: 12.6 nM

Question: Which IC50 [1] does the source give for `CC(C)(C)NS(=O)(=O)c1ccc(-c2sc(C(=O)NCC3(O)CCOCC3)nc2CC2CCCCC2)cc1C(C)(C)O` here?
Answer: 20 nM

Question: With `CC(C)(C)NS(=O)(=O)c1ccc(-c2sc(C(=O)NC3CCS(=O)(=O)CC3)nc2CC2CCCCC2)c2ccccc12` as the compound, how does the IC50 [1] read?
Answer: 1 nM

Question: Which IC50 [1] does the source give for `CC(C)(C)NS(=O)(=O)c1ccc(-c2nc(C(=O)NC34CCC(C(=O)O)(CC3)CC4)oc2CC2CCCCC2)c2ccccc12` here?
Answer: 39.8 nM

Question: For `C[C@H](NC(=O)c1cc(-c2sc(C(=O)NCC(C)(C)c3nnn[nH]3)nc2CC2CCCCC2)cc(C2(C)CC2)c1)C(F)(F)F`, which IC50 [1] is on record?
Answer: 31.6 nM

Question: Which IC50 [1] does the source give for `CC(C)(C#N)CNC(=O)c1nc(CC2CCCCC2)c(-c2ccc(S(=O)(=O)NC(C)(C)C)c3ccccc23)s1` here?
Answer: 2 nM

Question: With `CC(C)(O)CN1CCN(C(=O)c2nc(CC3CCCCC3)c(-c3ccc(S(=O)(=O)NC(C)(C)C)c4ccccc34)s2)CC1` as the compound, how does the IC50 [1] read?
Answer: 126 nM

Question: What about the IC50 [2] of the same compound?
Answer: 158 nM

Question: Which IC50 [1] does the source give for `CC(C)(C)c1cc(-c2oc(C(=O)NC3CCOCC3)nc2CC2CCCCC2)cc(C2(C)CC2)c1` here?
Answer: 126 nM

Question: Which IC50 [1] does the source give for `CCC1CCN(C(=O)c2nc(C(=O)NCC(C)(C)O)sc2-c2ccc(S(=O)(=O)NC(C)(C)C)c3ccccc23)CC1` here?
Answer: 31.6 nM

Question: With `CC(C)(C)NS(=O)(=O)c1ccc(-c2sc(C(=O)N[C@H]3C[C@H](C(=O)O)C3)nc2CC2CCCCC2)cc1C(C)(C)O` as the compound, how does the IC50 [1] read?
Answer: 10 nM

Question: With `CC(C)(O)c1cc(-c2sc(C(=O)N[C@H]3C[C@@H](C(=O)O)C3)nc2CC2CCCCC2)cc(C2(C)CC2)c1` as the compound, how does the IC50 [1] read?
Answer: 63.1 nM

Question: For `CC(C)(C)c1cc(-c2nc(C(=O)N[C@H]3C[C@H](OC=O)C3)oc2CC2CCCCC2)cc(C2(C)CC2)c1`, which IC50 [1] is on record?
Answer: 251 nM

Question: And the IC50 [2]?
Answer: 398 nM

Question: Which IC50 [1] does the source give for `CC(C)(C)c1cc(-c2ccc(C(N)=O)cc2CC2CCCCC2)cc(C(C)(C)C)c1` here?
Answer: 631 nM

Question: With `CC(C)(C)NS(=O)(=O)c1ccc(-c2oc(C(=O)NC3CCOCC3)nc2CC2CCCCC2)cc1C(C)(C)C` as the compound, how does the IC50 [1] read?
Answer: 501 nM

Question: What does the source list for `CC(C)(C)c1cc(-c2sc(S(=O)(=O)NC(=O)OCc3ccccc3)nc2CC2CCCCC2)cc(C2(C)CC2)c1`?
Answer: IC50 [1]: < 20000 nM; IC50 [2]: < 20000 nM

Question: With `CCCc1nc(C(=O)NCC(C)(C)O)sc1-c1ccc(S(=O)(=O)N[C@@H](C)C(F)(F)F)c2ccccc12` as the compound, how does the IC50 [1] read?
Answer: 12.6 nM

Question: For `COCC(C)(C)NS(=O)(=O)c1ccc(-c2sc(C(=O)N3CC4(CCS(=O)(=O)CC4)C3)nc2CC2CCCCC2)c2ccccc12`, which IC50 [1] is on record?
Answer: 39.8 nM

Question: For `CC(C)(C)c1cc(-c2nc(C(N)=O)oc2CC2CCCCC2)cc(C(C)(C)C)c1`, which IC50 [1] is on record?
Answer: < 20000 nM

Question: And the IC50 [2]?
Answer: < 20000 nM

Question: Which IC50 [1] does the source give for `CC(C)(C)NS(=O)(=O)c1ccc(-c2oc(C(=O)NC3CCOCC3)nc2CC2CCCCC2)c2ccccc12` here?
Answer: 12.6 nM

Question: What about the IC50 [2] of the same compound?
Answer: 15.8 nM

Question: Which IC50 [1] does the source give for `CCC(C)(C)NS(=O)(=O)c1ccc(-c2sc(C(=O)NCC(C)(C)O)nc2C(=O)N2CCC(C)CC2)c(Cl)c1C` here?
Answer: 3.16 nM

Question: For `CC(C)(C)c1cc(-c2sc(S(N)(=O)=O)nc2CC2CCCCC2)cc(C(C)(C)C)c1`, which IC50 [1] is on record?
Answer: 398 nM

Question: For `CC(C)(C)NS(=O)(=O)c1ccc(-c2sc(C(=O)NC3CCOCC3)nc2CC2CCCCC2)cc1C(C)(C)O`, which IC50 [1] is on record?
Answer: 20 nM

Question: For `CC(C)(C)NS(=O)(=O)c1ccc(-c2sc(C(=O)NC3CSC3)nc2CC2CCCCC2)c(Cl)c1Cl`, which IC50 [1] is on record?
Answer: 2 nM

Question: Which IC50 [1] does the source give for `CC(C)(C)NS(=O)(=O)c1ccc(-c2sc(C(=O)NC3CCS(=O)(=O)CC3)nc2CC2CCCCC2)c(Cl)c1Cl` here?
Answer: 2 nM

Question: With `CN(C(=O)c1nc(CC2CCCCC2)c(-c2cc(C(C)(C)C)cc(C3(C)CC3)c2)s1)C1CCOCC1` as the compound, how does the IC50 [1] read?
Answer: 126 nM

Question: For `CC(C)(C)NS(=O)(=O)c1ccc(-c2sc(C(=O)NC3CCS(=O)(=O)CC3)nc2C2CCCCC2)c2ccccc12`, which IC50 [1] is on record?
Answer: 6.31 nM

Question: Which results are given for `CC(C)(C)c1cc(-c2sc(C(=O)NC3CCC3)[n+]([O-])c2CC2CCCCC2)cc(C2(C)CC2)c1`?
Answer: IC50 [1]: 25.1 nM; IC50 [2]: 31.6 nM

Question: Which IC50 [1] does the source give for `CC(C)(C)NS(=O)(=O)c1ccc(-c2sc(C(=O)NCCN3CCOCC3)nc2CC2CCCCC2)cc1C(C)(C)O` here?
Answer: 200 nM
